Assay [1] concerns the target T1, SIK3 (Homo sapiens, UniProt Q9Y2K2).
T1 construct: purchased SignalChem S12-11G-100
The assay is described as follows: biochemical. The procedure, abridged:
(§1)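 Radiometric assay: SIK1, SIK2 or SIK3 phosphorylates AMARA peptide using unlabelled plus [^33P]-γ-ATP, reaction started by ATP addition. Stopped with 150 mM phosphoric acid, filter-harvested and washed; incorporated ^33P counted by scintillation. Controls: 1% DMSO and 10 μM staurosporine final.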

Assay [2] concerns the target T2, SIK2 (Homo sapiens, UniProt Q9H0K1).
T2 construct: purchased ThermoFisher Scientific PV4792
The experiment in a line: biochemical. The note with it: 33P radioactive SIK kinase assay, AMARA peptide, 10 μM ATP. The procedure, abridged:
as §1

Assay [3] addresses T3, SIK1 (Homo sapiens, UniProt P57059).
T3 construct: purchased Carna Biosciences 02-131
The experiment in a line: biochemical. The procedure, abridged: as §1

The subject of assay [4] is LPS driven TNFα secretion in Peripheral Blood Mononuclear Cells (PBMC). The experiment in a line: cells. The format is cell-based. The settings on record: Homo sapiens, LPS 1 ng/mL, supernatant after 18-20 h, ELISA.
Protocol: This assay measures the inhibition of LPS driven TNFα secretion by a test compound in Peripheral Blood Mononuclear Cells (PBMC), which in turn correlates with SIK inhibition.
PBMCs are isolated from human blood samples (buffy coats). The buffy coat is aseptically transferred into a 50 mL Falcon™ tube, and diluted 1/2 in Phosphate Buffered Saline (PBS). […] The tubes are centrifuged for 35 min at 400× g in temperature controlled centrifuge, without brake, at 25° C. PBMCs are aspirated from the white interface layer between sample and Lymphoprep. PBMCs are washed five times in PBS. […] The PBMCs are finally seeded at 400,000 PBMC/160 μL/96-well.
A compound dilution plate is made in 100% DMSO by 3-fold dilution of 10 mM stock solution of test compound. An intermediate dilution plate (10× final concentration) is made by diluting the compound dilution plate 50-fold in RPMI medium.
20 μL of the 10× final concentration compound is added to the cells and incubated for 1 hour at 37° C. before addition of trigger. No trigger conditions/trigger conditions are spiked with equal final DMSO concentrations of 0.2% DMSO. 20 μL of 10×LPS (final concentration 1 ng/mL) solution are added to all wells except for the ‘no trigger wells’ where 20 μL medium is added. Supernatant is collected after 18-20 h for IL-10 and TNFα determination using ELISA.
The plate is then washed once with PBST (PBS+0.05% Tween20) and once with PBS followed by the addition of 100 μL of blocking buffer (1% Bovine Serum Albumin (BSA)-5% Sucrose) and plates are sealed and incubated for at least 4 h at RT. After washing the plate once with PBST and once with PBS, 40 μL of standard or sample are added (TNFα standard curve is prepared using a 1/2 serial dilution starting from 16000 pg/mL; dilutions are made in dilution buffer (PBS+1% BSA)). Plates are washed twice with PBST, and once with PBS, after which 35 μL of the detection antibody is added (final concentration 0.25 μg/mL diluted in dilution buffer) and plates are incubated for at least 2 h at RT. Plates are washed twice with PBST, and once with PBS, where after 35 μL of Strep-HRP conjugate (0.5 μg/mL final concentration diluted in dilution buffer) is added. Plates are incubated in the dark, at RT for at least 45 min but no longer than 1 hour. Plates are washed twice with PBST, and once with PBS. Thereafter, 50 μL of luminol substrate is added to each well (prepared according to manufacturer's instructions), and incubated for 5 min at RT protected from light.
To measure the inhibition of LPS induced TNFα, percentage inhibition (PIN) values are calculated for all concentrations tested, compared to controls.
PIN values are plotted in concentration-response and EC50 values are derived using GraphPad Prism Software, applying 4-parameter nonlinear regression (sigmoidal) curve fitting.
The subject of assay [5] is LPS triggered IL-10 secretion in monocyte-derived macrophages (MdM). The assay is described as follows: MdM assay: LPS-triggered IL-10 (ELISA). It is filed as cell-based, human. The note with it: maximal fold change vs LPS only, median across assays. The procedure, abridged:
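CD14+ monocytes isolated from human buffy-coat PBMCs and differentiated to macrophages for 10 days. Cells pre-treated with compound 1 h at 37° C (0.2% DMSO), then stimulated with 200 ng/mL LPS; IL-10 in supernatant at 2 h measured by ELISA (A450). Maximal fold change versus LPS only reported as median of two or more runs.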

For assay [6], the system named is LPS-induced TNFα secretion in monocyte-derived macrophages (MdM). The experiment in a line: MdM assay: LPS-triggered TNFα (ELISA). It is filed as cell-based, human. The settings on record: Homo sapiens, Macrophage, LPS-triggered TNFα inhibition. The procedure, abridged:
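Human CD14+ monocytes isolated from buffy-coat PBMCs by magnetic beads, differentiated to macrophages; on day 10 compound preincubated 1 h at 37 °C, then LPS 200 ng/mL added (0.2% DMSO). Supernatant taken after 20 h; TNFα quantified by sandwich ELISA against standard curve.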

For assay [7], the target named is T1, SIK3. The assay is described as follows: biochemical. The settings on record: ADP-Glo SIK kinase assay. The procedure, abridged:
(§2)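 Enzyme–substrate mix was started with ATP and incubated 120 min at RT. ADP formed was quantified by ADP-Glo: 40 min ATP depletion, then 30 min detection reagent converting ADP to ATP for luciferase luminescence, which rises with kinase activity. Controls: 1% DMSO and 10 μM staurosporine (final).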

In assay [8] the target is T2, SIK2. The assay is described as follows: biochemical. The settings on record: ADP-Glo SIK kinase assay. The procedure, abridged:
as §2

In assay [9] the target is T3, SIK1. The experiment in a line: biochemical. The settings on record: ADP-Glo SIK kinase assay. In outline: as §2
Setting [10] is: 33P radioactive SIK kinase assay, AMARA peptide, 10 μM ATP, read-out: SIK1 IC50.

The structures appear in SMILES notation. Like-named read-outs stand apart in the source and are kept apart here.

T1 sequence (Q9Y2K2 whole entry): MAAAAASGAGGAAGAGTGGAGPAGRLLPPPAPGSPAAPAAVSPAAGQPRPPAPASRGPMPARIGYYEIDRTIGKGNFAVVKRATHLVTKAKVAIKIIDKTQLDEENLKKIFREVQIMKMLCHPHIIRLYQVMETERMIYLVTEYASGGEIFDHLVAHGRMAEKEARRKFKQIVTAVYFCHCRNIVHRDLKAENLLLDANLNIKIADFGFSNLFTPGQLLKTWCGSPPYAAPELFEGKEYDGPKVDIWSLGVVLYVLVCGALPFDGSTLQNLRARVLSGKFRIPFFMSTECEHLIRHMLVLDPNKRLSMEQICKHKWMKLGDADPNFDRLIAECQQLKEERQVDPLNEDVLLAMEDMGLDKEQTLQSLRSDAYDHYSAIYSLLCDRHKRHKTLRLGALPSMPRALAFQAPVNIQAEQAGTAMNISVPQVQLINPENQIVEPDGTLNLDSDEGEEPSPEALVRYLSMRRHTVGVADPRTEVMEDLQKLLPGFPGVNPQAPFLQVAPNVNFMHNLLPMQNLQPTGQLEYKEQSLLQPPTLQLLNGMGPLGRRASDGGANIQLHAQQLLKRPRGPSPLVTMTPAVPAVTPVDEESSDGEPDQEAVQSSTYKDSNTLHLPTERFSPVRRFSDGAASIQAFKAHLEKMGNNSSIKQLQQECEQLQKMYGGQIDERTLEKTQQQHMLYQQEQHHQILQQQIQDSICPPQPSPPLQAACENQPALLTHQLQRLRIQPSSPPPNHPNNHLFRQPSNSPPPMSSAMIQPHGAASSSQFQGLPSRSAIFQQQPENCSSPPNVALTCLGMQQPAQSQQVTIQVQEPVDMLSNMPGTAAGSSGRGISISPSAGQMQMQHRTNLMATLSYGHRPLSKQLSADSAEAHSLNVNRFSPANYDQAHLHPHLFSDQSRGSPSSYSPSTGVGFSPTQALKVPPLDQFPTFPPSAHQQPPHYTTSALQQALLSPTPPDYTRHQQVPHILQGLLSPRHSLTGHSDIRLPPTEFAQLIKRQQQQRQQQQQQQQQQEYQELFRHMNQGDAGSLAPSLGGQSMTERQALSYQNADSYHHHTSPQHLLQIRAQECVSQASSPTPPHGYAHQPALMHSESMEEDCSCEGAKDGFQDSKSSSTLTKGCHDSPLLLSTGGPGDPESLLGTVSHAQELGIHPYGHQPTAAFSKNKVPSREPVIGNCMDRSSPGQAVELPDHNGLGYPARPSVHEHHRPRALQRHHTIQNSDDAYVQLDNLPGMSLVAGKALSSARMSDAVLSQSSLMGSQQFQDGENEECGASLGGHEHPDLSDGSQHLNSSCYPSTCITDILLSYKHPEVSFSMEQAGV
T3 sequence (P57059 whole entry): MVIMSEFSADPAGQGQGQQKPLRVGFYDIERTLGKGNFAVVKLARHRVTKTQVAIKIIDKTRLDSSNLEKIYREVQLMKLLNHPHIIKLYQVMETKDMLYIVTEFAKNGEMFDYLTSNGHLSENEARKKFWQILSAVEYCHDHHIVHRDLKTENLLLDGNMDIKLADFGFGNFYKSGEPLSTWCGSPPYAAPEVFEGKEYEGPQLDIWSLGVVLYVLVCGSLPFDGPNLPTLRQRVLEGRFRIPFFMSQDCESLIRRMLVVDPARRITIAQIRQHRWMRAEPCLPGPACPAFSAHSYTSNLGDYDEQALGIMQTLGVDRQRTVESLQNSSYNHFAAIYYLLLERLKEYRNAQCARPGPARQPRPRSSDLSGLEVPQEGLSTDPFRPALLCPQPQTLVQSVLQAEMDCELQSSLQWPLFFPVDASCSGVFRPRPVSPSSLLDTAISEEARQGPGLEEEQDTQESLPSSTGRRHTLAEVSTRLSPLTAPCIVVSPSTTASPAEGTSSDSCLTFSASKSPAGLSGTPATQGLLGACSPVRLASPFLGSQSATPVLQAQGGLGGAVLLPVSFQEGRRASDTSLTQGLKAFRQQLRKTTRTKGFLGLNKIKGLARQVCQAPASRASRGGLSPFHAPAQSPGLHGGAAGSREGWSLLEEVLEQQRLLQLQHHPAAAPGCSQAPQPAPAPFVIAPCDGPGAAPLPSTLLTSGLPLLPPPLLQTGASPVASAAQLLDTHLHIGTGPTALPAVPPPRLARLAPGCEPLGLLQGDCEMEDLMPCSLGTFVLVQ
T2 sequence (Q9H0K1 whole entry): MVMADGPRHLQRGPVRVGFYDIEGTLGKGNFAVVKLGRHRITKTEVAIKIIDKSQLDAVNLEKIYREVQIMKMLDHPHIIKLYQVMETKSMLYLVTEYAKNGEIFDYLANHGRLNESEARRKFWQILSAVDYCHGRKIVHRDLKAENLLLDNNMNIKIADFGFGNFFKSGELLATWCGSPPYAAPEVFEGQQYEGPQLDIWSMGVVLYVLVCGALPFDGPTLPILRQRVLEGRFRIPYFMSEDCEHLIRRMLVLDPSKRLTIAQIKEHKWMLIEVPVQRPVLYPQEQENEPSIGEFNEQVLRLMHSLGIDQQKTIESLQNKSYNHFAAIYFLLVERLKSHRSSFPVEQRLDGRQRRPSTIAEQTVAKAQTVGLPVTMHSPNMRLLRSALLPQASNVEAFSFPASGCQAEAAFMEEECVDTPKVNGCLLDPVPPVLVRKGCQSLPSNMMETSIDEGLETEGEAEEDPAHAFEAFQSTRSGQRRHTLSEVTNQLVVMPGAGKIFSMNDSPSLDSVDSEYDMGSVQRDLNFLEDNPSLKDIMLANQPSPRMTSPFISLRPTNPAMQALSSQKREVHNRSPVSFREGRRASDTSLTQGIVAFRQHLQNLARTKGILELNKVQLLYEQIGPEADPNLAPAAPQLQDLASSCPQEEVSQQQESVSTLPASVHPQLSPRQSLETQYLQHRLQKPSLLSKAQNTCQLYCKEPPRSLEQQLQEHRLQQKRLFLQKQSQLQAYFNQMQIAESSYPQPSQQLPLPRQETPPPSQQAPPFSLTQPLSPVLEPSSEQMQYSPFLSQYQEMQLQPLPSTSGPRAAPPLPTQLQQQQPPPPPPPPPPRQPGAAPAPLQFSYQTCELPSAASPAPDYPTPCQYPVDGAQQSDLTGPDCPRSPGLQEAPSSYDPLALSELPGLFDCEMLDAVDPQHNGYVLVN

`COc1cc(-n2cnc3cc(-c4cnn(C)c4)ccc32)cc(OC)c1C(=O)NCC(F)(F)F` [Cpd 25, 2,6-dimethoxy-4-[5-(1-methylpyrazol-4-yl)benzimidazol-1-yl]-N-(2,2,2-trifluoroethyl)benzamide]: the concentration for half-maximal inhibition (IC50) fell in the range of 0.01 to 10 nM against SIK3 [1], 0.01 to 10 nM on SIK2 [2] and 10 to 100 nM at SIK1 [3] (setting [10]). Also, the EC50 in assay [4] and in assay [6] was 0.1 to 100 nM each time. Further, the “IL-10 FCmax median” value in assay [5] was “++ (>1.5-4.5)”.

`COc1cc(-n2cnc3cc(-c4cnn(C5CNC5)c4)ccc32)cc(OC)c1C(=O)NCC(F)(F)F` [Cpd 94, 4-[5-[1-(azetidin-3-yl)pyrazol-4-yl]benzimidazol-1-yl]-2,6-dimethoxy-N-(2,2,2-trifluoroethyl)benzamide]: the IC50 at SIK3 [1], at SIK2 [2] and at SIK1 [3] (setting [10]) was 0.01 to 10 nM in each case. Also, the 50% effective concentration (EC50) in [4] lay within 0.1 to 100 nM; in assay [6] it was 100 to 1000 nM.

On to `COc1cc(-n2cnc3cc(-c4cnn(C5CN(CC#N)C5)c4)ccc32)cc(OC)c1C(=O)NCC(F)(F)F` [Cpd 100, 4-[5-[1-[1-(cyanomethyl)azetidin-3-yl]pyrazol-4-yl]benzimidazol-1-yl]-2,6-dimethoxy-N-(2,2,2-trifluoroethyl)benzamide], for which the 50% inhibitory concentration (IC50) is 0.01 to 10 nM against SIK3 [1], 0.01 to 10 nM at SIK2 [2] and 10 to 100 nM at SIK1 [3] (setting [10]). Besides, the concentration for a half-maximal effect (EC50) was 0.1 to 100 nM in assay [4] and 100 to 1000 nM in [6].

In the case of `COc1cc(-n2cnc3cc(-c4cnn(CC(C)C)c4)ccc32)cc(OC)c1C(=O)NCC(F)(F)F` [Cpd 110, 4-[5-(1-isobutylpyrazol-4-yl)benzimidazol-1-yl]-2,6-dimethoxy-N-(2,2,2-trifluoroethyl)benzamide], the figures for the IC50 against SIK3 [1], at SIK2 [2] and at SIK1 [3] (setting [10]) were 0.01 to 10 nM, 0.01 to 10 nM and 10 to 100 nM, respectively. Further, the concentration giving a half-maximal response (EC50) in assay [4] was 0.1 to 100 nM; in assay [6] it was 100 to 1000 nM.

`COc1cc(-c2cnc3cc(-c4cnn(C)c4)ccn23)cc(OC(F)F)c1C(=O)NC1CC1` [Cpd 124, N-cyclopropyl-2-(difluoromethoxy)-6-methoxy-4-[7-(1-methylpyrazol-4-yl)imidazo[1,2-a]pyridin-3-yl]benzamide]: the IC50 against SIK3 [1], on SIK2 [2] and at SIK1 [3] (setting [10]) was 0.01 to 10 nM each time. For the same compound, the concentration for a half-maximal effect (EC50) in [4] and in assay [6] was 0.1 to 100 nM throughout. In addition, the “IL-10 FCmax median” value in [5] was “++ (>1.5-4.5)”.

For the compound `COc1cc(-n2cnc3cc(-c4cnn(C(C)C)c4)ccc32)cc(OC)c1C(=O)NCC(F)(F)F` [compound 95, 4-[5-(1-isopropylpyrazol-4-yl)benzimidazol-1-yl]-2,6-dimethoxy-N-(2,2,2-trifluoroethyl)benzamide], the half-inhibitory concentration (IC50) on SIK3 [1] was in the range of 0.01 to 10 nM; at SIK2 [2], 0.01 to 10 nM; on SIK1 [3], 10 to 100 nM. In addition, the 50% effective concentration (EC50) in assay [4] and in [6] was 0.1 to 100 nM in each case.

With `COc1cc(-n2cnc3cc(-c4cnn(C(F)F)c4)ccc32)cc(OC)c1C(=O)NCC(F)(F)F` [compound 97, 4-[5-[1-(difluoromethyl)pyrazol-4-yl]benzimidazol-1-yl]-2,6-dimethoxy-N-(2,2,2-trifluoroethyl)benzamide], the 50% inhibitory concentration (IC50) was in the range of 0.01 to 10 nM against SIK3 [1], 0.01 to 10 nM on SIK2 [2] and 10 to 100 nM on SIK1 [3] (setting [10]). Also, the EC50 in assay [4] and in [6] was 0.1 to 100 nM in each case.

Regarding `COc1cc(-c2cnn3cc(-c4cnn(C)c4)ccc23)cc(OC)c1C(=O)NCC(F)(F)F` [compound 99, 2,6-dimethoxy-4-[6-(1-methylpyrazol-4-yl)pyrazolo[1,5-a]pyridin-3-yl]-N-(2,2,2-trifluorocthyl)benzamide], the half-inhibitory concentration (IC50) on SIK3 [1], on SIK2 [2] and on SIK1 [3] (setting [10]) was 0.01 to 10 nM in each case. Moreover, the EC50 in assay [4] and in assay [6] was 0.1 to 100 nM in each case.

On to `COc1cc(-n2cnc3cc(-c4cc(C)n[nH]4)ccc32)cc(OC)c1C(=O)NCC(F)(F)F` [compound 101, 2,6-dimethoxy-4-[5-(3-methyl-1H-pyrazol-5-yl)benzimidazol-1-yl]-N-(2,2,2-trifluoroethyl)benzamide], for which the figures for the IC50 at SIK3 [1], at SIK2 [2] and at SIK1 [3] (setting [10]) were 0.01 to 10 nM, 0.01 to 10 nM and 10 to 100 nM, respectively. The EC50 in assay [4] and in assay [6] was 0.1 to 100 nM throughout.

Turning to `CCCn1cc(-c2ccc3c(c2)ncn3-c2cc(OC)c(C(=O)NCC(F)(F)F)c(OC)c2)cn1` [compound 103, 2,6-dimethoxy-4-[5-(1-propylpyrazol-4-yl)benzimidazol-1-yl]-N-(2,2,2-trifluoroethyl)benzamide], the IC50 at SIK3 [1], on SIK2 [2] and on SIK1 [3] (setting [10]) was 0.01 to 10 nM in each case. Moreover, the concentration giving a half-maximal response (EC50) in assay [4] and in [6] was 0.1 to 100 nM throughout.

`COc1cc(-c2cnc3cc(-c4cnn(C)c4)cnn23)cc(OC)c1C(=O)NCC(F)(F)F` [compound 107]: the half-maximal inhibitory concentration (IC50) lay within 0.01 to 10 nM at SIK3 [1], 0.01 to 10 nM at SIK2 [2] and 10 to 100 nM on SIK1 [3] (setting [10]). Also, the EC50 in assay [4] was 0.1 to 100 nM; in assay [6], 100 to 1000 nM.

Take `COc1cc(-n2cnc3cc(-c4cc(C)no4)ccc32)cc(OC)c1C(=O)NCC(F)(F)F` [compound 109, 2.6-dimethoxy-4-[5-(3-methylisoxazol-5-yl)benzimidazol-1-yl]-N-(2,2,2-trifluoroethyl)benzamide]: the 50% inhibitory concentration (IC50) at SIK3 [1], on SIK2 [2] and on SIK1 [3] (setting [10]) was 10 to 100 nM in each case. Further, the EC50 in [4] and in assay [6] was 100 to 1000 nM throughout.

With `CCNC(=O)c1c(OC)cc(-c2cnn3cc(-c4cnn(C)c4)ccc23)cc1OC(F)F` [compound 117, 2-(difluoromethoxy)-N-ethyl-6-methoxy-4-[6-(1-methylpyrazol-4-yl)pyrazolo[1,5-a]pyridin-3-yl]benzamide], the IC50 against SIK3 [1], on SIK2 [2] and on SIK1 [3] (setting [10]) was 0.01 to 10 nM each time. Also, the EC50 in [4] and in assay [6] was 0.1 to 100 nM in each case.

`COc1cc(-n2cnc3cc(-c4cnn(C)c4)ccc32)cc(OC)c1C(=O)N1CC(C)(C)C1` [compound 179, [2,6-dimcthoxy-4-[5-(1-methylpyrazol-4-yl)benzimidazol-1-yl]phenyl]-(3,3-dimethylazetidin-1-yl)methanone]: the IC50 against SIK3 [1], on SIK2 [2] and at SIK1 [3] (setting [10]) was 10 to 100 nM in each case. Also, the EC50 in assay [4] and in assay [6] was 100 to 1000 nM throughout.

`CCOC(=O)C(C)n1cc(-c2ccn3c(-c4cc(OC)c(C(=O)NCC(F)(F)F)c(OC)c4)cnc3c2)cn1` (centres unmarked) [compound 263, ethyl 2-[4-[3-[3,5-dimethoxy-4-(2,2,2-trifluoroethyl-carbamoyl)phenyl]imidazo[1,2-a]pyridin-7-yl]pyrazol-1-yl]propanoate]: the IC50 against SIK3 [1], at SIK2 [2], at SIK1 [3] (setting [10]), against SIK3 [7], on SIK2 [8] and at SIK1 [9] was 0.01 to 10 nM in each case. Moreover, the “IL-10 FCmax median” value in assay [5] is on record as “++ (>1.5-4.5)”. The same compound returned an EC50 in assay [6] of 0.1 to 100 nM.

For the origin of these results see US12065443B2, “Compounds and pharmaceutical compositions thereof for the treatment of diseases” (priority 2017, dated 2024).
